Patent US11116760B2 (Gilead Sciences, Inc., priority 2018, dated 2021)

Molecular target: α4β7 integrin (Homo sapiens (Human), UniProt P13612+P26010)
Experiment: α4β7 Integrin Cell Capture Assay
Type: cell-based
Settings: RPMI8866 cells captured on MadCAM-1 extracellular domain-coated plate

α4β7 integrin, sequence (P13612 34-1032): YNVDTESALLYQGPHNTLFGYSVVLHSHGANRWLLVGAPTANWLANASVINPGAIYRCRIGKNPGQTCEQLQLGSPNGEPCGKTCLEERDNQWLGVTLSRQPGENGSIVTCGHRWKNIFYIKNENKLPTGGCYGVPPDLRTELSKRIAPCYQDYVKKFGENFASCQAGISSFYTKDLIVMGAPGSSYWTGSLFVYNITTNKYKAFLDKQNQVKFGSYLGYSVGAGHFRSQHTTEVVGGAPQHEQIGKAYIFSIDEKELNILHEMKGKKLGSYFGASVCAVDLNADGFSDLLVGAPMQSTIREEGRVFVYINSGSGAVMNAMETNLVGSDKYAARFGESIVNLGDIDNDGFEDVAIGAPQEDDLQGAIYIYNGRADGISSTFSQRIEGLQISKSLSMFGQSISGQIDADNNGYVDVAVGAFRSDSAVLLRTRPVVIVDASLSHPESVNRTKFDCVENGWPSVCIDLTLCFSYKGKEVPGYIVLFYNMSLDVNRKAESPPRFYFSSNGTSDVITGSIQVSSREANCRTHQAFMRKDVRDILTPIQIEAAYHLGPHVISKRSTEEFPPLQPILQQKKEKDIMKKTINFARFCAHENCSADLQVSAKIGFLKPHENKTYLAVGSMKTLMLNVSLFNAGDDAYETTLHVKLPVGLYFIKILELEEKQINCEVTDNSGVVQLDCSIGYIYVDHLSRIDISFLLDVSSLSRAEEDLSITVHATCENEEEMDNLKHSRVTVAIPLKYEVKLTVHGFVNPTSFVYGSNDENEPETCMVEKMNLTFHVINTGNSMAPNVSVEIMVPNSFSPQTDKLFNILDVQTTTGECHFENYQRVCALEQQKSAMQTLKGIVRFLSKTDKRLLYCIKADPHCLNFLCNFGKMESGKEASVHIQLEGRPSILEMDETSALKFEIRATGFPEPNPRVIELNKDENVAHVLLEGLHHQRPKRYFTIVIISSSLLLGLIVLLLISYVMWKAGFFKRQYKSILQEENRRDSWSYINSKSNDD
α4β7 integrin, sequence (P26010 20-798): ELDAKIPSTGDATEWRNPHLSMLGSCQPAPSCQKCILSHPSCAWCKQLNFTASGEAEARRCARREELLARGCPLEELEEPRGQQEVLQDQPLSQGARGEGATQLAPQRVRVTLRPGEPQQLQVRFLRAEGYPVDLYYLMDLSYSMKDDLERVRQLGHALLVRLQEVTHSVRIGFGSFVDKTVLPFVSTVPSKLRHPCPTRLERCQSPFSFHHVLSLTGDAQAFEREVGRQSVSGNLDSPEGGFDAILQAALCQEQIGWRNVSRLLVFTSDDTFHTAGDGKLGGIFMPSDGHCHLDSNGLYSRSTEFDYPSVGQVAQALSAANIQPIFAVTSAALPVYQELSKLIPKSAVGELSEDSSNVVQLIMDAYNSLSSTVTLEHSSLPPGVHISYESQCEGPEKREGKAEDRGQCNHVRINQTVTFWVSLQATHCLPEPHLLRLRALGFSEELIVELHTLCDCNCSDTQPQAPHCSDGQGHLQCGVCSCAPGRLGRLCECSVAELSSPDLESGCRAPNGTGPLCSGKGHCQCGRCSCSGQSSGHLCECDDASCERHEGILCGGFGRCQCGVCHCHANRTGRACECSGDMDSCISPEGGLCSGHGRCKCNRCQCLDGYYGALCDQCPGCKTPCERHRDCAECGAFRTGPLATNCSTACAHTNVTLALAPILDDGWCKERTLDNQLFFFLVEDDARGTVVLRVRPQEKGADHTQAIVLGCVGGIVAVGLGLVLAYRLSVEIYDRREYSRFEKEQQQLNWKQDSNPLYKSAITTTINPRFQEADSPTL

EC50 [nM] | SMILES
0.211 | Cc1cc(N2CCOC[C@@H]2C(F)(F)F)cc(F)c1C(=O)N[C@@H](Cc1ccc(-c2cc(C)c(C)n(C)c2=O)c2ncccc12)C(=O)O [Example 455]
0.205 | Cc1cc(C(F)(F)F)c(-c2ccc(C[C@H](NC(=O)c3c(F)cc(N4CCOC[C@@H]4C(F)(F)F)cc3C3CC3)C(=O)O)c3cccnc23)c(=O)n1C [Example 463]
0.06 | Cc1cc(N2CCOC[C@@H]2C(F)(F)F)cc(F)c1C(=O)N[C@@H](Cc1ccc(-n2c(=O)c3c(n(C)c2=O)COCC3)c2ncccc12)C(=O)O [Example 411]
0.09 | Cc1cc(N2CCOC[C@@H]2C(F)(F)F)cc(F)c1C(=O)N[C@@H](Cc1ccc(-c2c(C(F)(F)F)nc(C)n(C)c2=O)c2ncccc12)C(=O)O [Example 458]
0.112 | Cn1c(=O)n(-c2ccc(C[C@H](NC(=O)c3c(F)cc(N4CCOC[C@@H]4C(F)(F)F)cc3F)C(=O)O)c3cccnc23)c(=O)c2ccncc21 [Example 474]
0.185 | Cc1cc2c(=O)n(-c3ccc(C[C@H](NC(=O)c4c(C)cc(N5CCOC[C@@H]5C(F)(F)F)cc4F)C(=O)O)c4cccnc34)c(=O)n(C)c2cn1 [Example 425]
1.5 | Cc1cnc(-c2ccc(C[C@H](NC(=O)c3c(C)cc(N4CCOC[C@@H]4C(F)(F)F)cc3F)C(=O)O)c3cccnc23)nc1C [Example 482]
0.102 | [2H]C([2H])([2H])c1cc(N2CCOC[C@@H]2C(F)(F)F)cc(F)c1C(=O)N[C@@H](Cc1ccc(-c2c(C(F)(F)F)cc(C)n(C)c2=O)c2ncccc12)C(=O)O [Example 462]

Same assay, conditions: Table 1; capture of α4β7 expressing RPM18866 cells on MadCAM-1 extracellular domain-coated plate

EC50 [nM] | SMILES
27.4 | Cc1noc(C)c1-c1ccc(C[C@H](NC(=O)c2c(F)cc(NS(=O)(=O)c3ccc(-c4ccnc(F)c4)cc3)cc2F)C(=O)O)c2cccnc12 [Example 55, (S)-2-(2,6-difluoro-4-((4-(2-fluoropyridin-4-yl)phenyl)sulfonamido)benzamido)-3-(8-(3,5-dimethylisoxazol-4-yl)quinolin-5-yl)propanoic acid]
6.7 | N#Cc1cc(Cl)c(-c2ccc(C[C@H](NC(=O)c3c(Cl)cccc3Cl)C(=O)O)c3cccnc23)c(Cl)c1 [Example 4, (S)-3-(8-(2,6-dichloro-4-cyanophenyl)quinolin-5-yl)-2-(2,6-dichlorobenzamido)propanoic acid]
1.3 | CC[C@@H](Nc1cc(F)c(C(=O)N[C@@H](Cc2ccc(-c3nc(C)ccc3OC)c3ncccc23)C(=O)O)c(F)c1)C(F)(F)F [Example 120, (S)-2-(2,6-difluoro-4-(((R)-1,1,1-trifluorobutan-2-yl)amino)benzamido)-3-(8-(3-methoxy-6-methylpyridin-2-yl)quinolin-5-yl)propanoic acid]
0.1 | Cc1cc(N2CCOC[C@@H]2C(F)(F)F)cc(F)c1C(=O)N[C@@H](Cc1ccc(-c2c(C(F)(F)F)cc(C)n(C)c2=O)c2ncccc12)C(=O)O [Example 141, (S)-3-(8-(1,6-dimethyl-2-oxo-4-(trifluoromethyl)-1,2-dihydropyridin-3-yl)quinolin-5-yl)-2-(2-fluoro-6-methyl-4-((R)-3-(trifluoromethyl)morpholino)benzamido)propanoic acid]
50 | O=C(N[C@@H](Cc1ccc(-c2c(Cl)cc(F)cc2Cl)c2ncccc12)C(=O)O)c1c(F)cccc1F [Example 19, (S)-3-(8-(2,6-dichloro-4-fluorophenyl)quinolin-5-yl)-2-(2,6-difluorobenzamido)propanoic acid]
0.2 | CC[C@@H](Nc1cc(C)c(C(=O)N[C@@H](Cc2ccc(-c3c(C(F)(F)F)cc(C)n(C)c3=O)c3ncccc23)C(=O)O)c(F)c1)C(F)(F)F [Example 142, (S)-3-(8-(1,6-dimethyl-2-oxo-4-(trifluoromethyl)-1,2-dihydropyridin-3-yl)quinolin-5-yl)-2-(2-fluoro-6-methyl-4-(((R)-1,1,1-trifluorobutan-2-yl)amino)benzamido)propanoic acid]
2.5 | Cc1cc(C(F)(F)F)c(-c2ccc(C[C@H](NC(=O)c3c(Cl)cccc3Cl)C(=O)O)c3cccnc23)c(=O)n1C [Example 73, (S)-2-(2,6-dichlorobenzamido)-3-(8-(1,6-dimethyl-2-oxo-4-(trifluoromethyl)-1,2-dihydropyridin-3-yl)quinolin-5-yl)propanoic acid]
1.3 | Cc1cc(C(F)(F)F)c(-c2ccc(C[C@H](NC(=O)c3c(F)cc(N4CCC[C@@H]4C(F)(F)F)cc3F)C(=O)O)c3cccnc23)c(=O)n1C [Example 132, (S)-2-(2,6-difluoro-4-((R)-2-(trifluoromethyl)pyrrolidin-1-yl)benzamido)-3-(8-(1,6-dimethyl-2-oxo-4-(trifluoromethyl)-1,2-dihydropyridin-3-yl)quinolin-5-yl)propanoic acid]
28.9 | COc1ccc(C(F)(F)F)c(-c2ccc(C[C@H](NC(=O)c3c(Cl)cccc3Cl)C(=O)O)c3cccnc23)n1 [Example 69, (S)-2-(2,6-dichlorobenzamido)-3-(8-(6-methoxy-3-(trifluoromethyl)pyridin-2-yl)quinolin-5-yl)propanoic acid]
0.5 | Cc1cc(C(F)(F)F)c(-c2ccc(C[C@H](NC(=O)c3c(F)cc(N4CCOC[C@@H]4CC(F)F)cc3F)C(=O)O)c3cccnc23)c(=O)n1C [Example 130, (S)-2-(4-((S)-3-(2,2-difluoroethyl)morpholino)-2,6-difluorobenzamido)-3-(8-(1,6-dimethyl-2-oxo-4-(trifluoromethyl)-1,2-dihydropyridin-3-yl)quinolin-5-yl)propanoic acid]
37.4 | O=C(N[C@@H](Cc1ccc(-c2ccc(C3CC3)cc2Cl)c2ncccc12)C(=O)O)c1c(F)cc(NS(=O)(=O)c2ccc(-c3ccnc(F)c3)cc2)cc1F [Example 54, (S)-3-(8-(2-chloro-4-cyclopropylphenyl)quinolin-5-yl)-2-(2,6-difluoro-4-((4-(2-fluoropyridin-4-yl)phenyl)sulfonamido)benzamido)propanoic acid]
46.7 | COc1cccc(F)c1C(=O)N[C@@H](Cc1ccc(-c2ccc(C#N)cc2Cl)c2ncccc12)C(=O)O [Example 23, (S)-3-(8-(2-chloro-4-cyanophenyl)quinolin-5-yl)-2-(2-fluoro-6-methoxybenzamido)propanoic acid]

SMILES | EC50 [nM]
CCOCc1cc(OC)c(-c2ccc(CC(NC(=O)c3c(F)cccc3F)C(=O)O)c3ccc(C(F)(F)F)nc23)c(OC)c1 (stereo not drawn) [Example 38, 2-(2,6-difluorobenzamido)-3-(8-(4-(ethoxymethyl)-2,6-dimethoxyphenyl)-2-(trifluoromethyl)quinolin-5-yl)propanoic acid] | 29.7
N#CCc1ccc(-c2ccc(C[C@H](NC(=O)c3c(F)cc(NS(=O)(=O)c4ccc(-c5ccnc(F)c5)cc4)cc3F)C(=O)O)c3cccnc23)c(Cl)c1 [Example 53, (S)-3-(8-(2-chloro-4-(cyanomethyl)phenyl)quinolin-5-yl)-2-(2,6-difluoro-4-((4-(2-fluoropyridin-4-yl)phenyl)sulfonamido)benzamido)propanoic acid] | 3

Same assay, conditions: Table 2; capture of α4β7 expressing RPM18866 cells on MadCAM-1 extracellular domain-coated plate

EC50 [nM] | SMILES
11.4 | CC[C@@H](Nc1cc(F)c(C(=O)N[C@@H](Cc2ccc(-c3nccc(C)c3C)c3ncccc23)C(=O)O)c(F)c1)C(F)(F)F [Example 307]
5.5 | Cc1cc(C(F)(F)F)c(-c2ccc(C[C@H](NC(=O)c3c(F)cc(N4CCOC[C@@H]4C(F)(F)F)cc3F)C(=O)O)c3cc(N(C)C)cnc23)c(=O)n1C [Example 281]
16.2 | CC(C)(O)[C@H](F)CNC(=O)c1cc(F)c(C(=O)N[C@@H](Cc2ccc(-c3ccc(C#N)cc3Cl)c3ncccc23)C(=O)O)c(F)c1 [Example 322]
1 | CC[C@@H](Nc1cc(F)c(C(=O)N[C@@H](Cc2ccc(-c3c(OC)ccn(C)c3=O)c3ncccc23)C(=O)O)c(F)c1)C(F)(F)F [Example 186]
25.1 | CCOCc1cc(OC)c(-c2ccc(C[C@H](NC(=O)c3c(F)cc4[nH]c(Cc5ccccc5)cc4c3F)C(=O)O)c3cccnc23)c(OC)c1 [Example 335]
9.4 | O=C(N[C@@H](Cc1ccc(-c2ncc3ccccc3c2Br)c2ncccc12)C(=O)O)c1c(Cl)cccc1Cl [Example 303]
3.4 | Cc1nc(-c2ccc(C[C@H](NC(=O)c3c(F)cc(N4CCOC[C@H]4C(F)(F)F)cc3F)C(=O)O)c3cccnc23)c(=O)n(C)c1C [Example 255]
3.8 | Cc1cnc(-c2ccc(C[C@H](NC(=O)c3c(F)cc(N4CCOC[C@@H]4C(F)(F)F)cc3F)C(=O)O)c3cccnc23)c(C(F)(F)F)c1 [Example 260]
2.8 | C[C@@H](Nc1cc(F)c(C(=O)N[C@@H](Cc2ccc(-c3nc(N)ccc3C(F)(F)F)c3ncccc23)C(=O)O)c(F)c1)C(F)(F)F [Example 238]
15.8 | CC[C@@H](Nc1cc(F)c(C(=O)N[C@@H](Cc2ccc(-c3nc(C)ccc3Cl)c3ncccc23)C(=O)O)c(F)c1)C(F)(F)F [Example 321]
2.6 | CC[C@@H](Nc1cc(F)c(C(=O)N[C@@H](Cc2ccc(-c3nc(C)c(C)c(C)c3C(F)(F)F)c3ncccc23)C(=O)O)c(F)c1)C(F)(F)F [Example 236]
1.7 | Cc1nc(-c2ccc(C[C@H](NC(=O)c3c(F)cc(N4CCOC[C@@H]4C(F)(F)F)cc3F)C(=O)O)c3cccnc23)nc2cc(F)ccc12 [Example 206]
12.5 | CN1CCc2nc(-c3ccc(C[C@H](NC(=O)c4c(F)cc(N5CCOC[C@@H]5C(F)(F)F)cc4F)C(=O)O)c4cccnc34)ncc2C1 [Example 312]
1.5 | CC[C@@H](Nc1cc(F)c(C(=O)N[C@@H](Cc2ccc(-c3c(C)c(Cl)cn(C)c3=O)c3ncccc23)C(=O)O)c(F)c1)C(F)(F)F [Example 200]
45.9 | N#Cc1ccc(-c2ccc(C[C@H](NC(=O)c3c(F)cc(NC4(C(F)F)CC4)cc3F)C(=O)O)c3cccnc23)c(Cl)c1 [Example 284]
3.2 | Cc1cc(C(F)(F)F)c(-c2ccc(C[C@H](NC(=O)c3c(F)cc(N4CCOC[C@H]4CC(F)(F)F)cc3F)C(=O)O)c3cccnc23)c(=O)n1C [Example 254]

SMILES | EC50 [nM]
CC[C@@H](Nc1cc(F)c(C(=O)N[C@@H](Cc2ccc(-c3c(C)c4cc(F)ccc4n(C)c3=O)c3ncccc23)C(=O)O)c(F)c1)C(F)(F)F (atropisomer, axis not shown) [Example 185] | 1
